Columns and labels:
[1] = tested on: CT26 colon cancer; test: CT26 colon cancer tumor growth (FIG. 25B); assay type: in vivo, mice; conditions: 5 mg/kg, i.p
Protocol: (§1) FIGS. 25A-B is a set of curves showing the tumor growth of MC38 (FIG. 25A) or CT26 (FIG. 25B) colon cancer in mice treated with PBS (Control; closed circles), clonidine (5 mg/kg, i.p; closed squares) or apraclonidine (5 mg/kg, i.p; closed triangles).

[2] = stated without a test; cited from earlier work
[3] = tested on: MC38 colon cancer; test: MC38 colon cancer tumor growth (FIG. 25A); assay type: in vivo, mice; conditions: 5 mg/kg, i.p
Protocol: as §1

[4] = tested on: cholangiocarcinoma; conditions: in vitro; Kanno et al., Hepatology, 2002; cited from earlier work

Row | Compound | tumor growth [1] | crossing of the blood-brain barrier [2] | tumor growth [3] | cholangiocarcinoma growth [4]
1 | Nc1cc(Cl)c(N=C2NCCN2)c(Cl)c1 [apraclonidine] | anti-tumor effect | does not cross the blood-brain barrier | anti-tumor effect | 
2 | brimonidine tartrate [UK14,304] |  |  |  | significantly decreases cholangiocarcinoma growth

Reference: US20230165836A1, “ALPHA-2 ADRENERGIC RECEPTOR AGONISTS FOR THE TREATMENT OF CANCER” (UNIVERSITÉ CATHOLIQUE DE LOUVAIN, priority 2020, published 2023)
